pIC50: −log10 of the molar value.
Target: T1, human ACC2 (Homo sapiens, UniProt O00763)
T1 construct: made in house; host or cells: insect cells (baculoviral expression system)
Assay: ACC2 assay, spectrophotometric 384 well assay (NADH-linked, coupled lactate dehydrogenase/pyruvate kinase)
Type: biochemical
Settings: ACC2 assay, hACC2 construct lacking 128 N-terminal amino acids, 25° C., 340 nm; read-out: IC50
Procedure, shortened: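 Human ACC2 lacking N-terminal 128 aa, baculovirus/insect-cell expressed, anion-exchange purified; 100 mM Tris pH 7.5, 10 mM citrate, 25 mM KHCO3, 1% DMSO. Started with 200 μM NADH and acetyl-CoA plus 500 μM ATP; PK/LDH-coupled A340 decrease read 15 min at 25° C. IC50 by nonlinear fit of low-control-subtracted slopes.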

T1 sequence (O00763 129-2458 limits assumed): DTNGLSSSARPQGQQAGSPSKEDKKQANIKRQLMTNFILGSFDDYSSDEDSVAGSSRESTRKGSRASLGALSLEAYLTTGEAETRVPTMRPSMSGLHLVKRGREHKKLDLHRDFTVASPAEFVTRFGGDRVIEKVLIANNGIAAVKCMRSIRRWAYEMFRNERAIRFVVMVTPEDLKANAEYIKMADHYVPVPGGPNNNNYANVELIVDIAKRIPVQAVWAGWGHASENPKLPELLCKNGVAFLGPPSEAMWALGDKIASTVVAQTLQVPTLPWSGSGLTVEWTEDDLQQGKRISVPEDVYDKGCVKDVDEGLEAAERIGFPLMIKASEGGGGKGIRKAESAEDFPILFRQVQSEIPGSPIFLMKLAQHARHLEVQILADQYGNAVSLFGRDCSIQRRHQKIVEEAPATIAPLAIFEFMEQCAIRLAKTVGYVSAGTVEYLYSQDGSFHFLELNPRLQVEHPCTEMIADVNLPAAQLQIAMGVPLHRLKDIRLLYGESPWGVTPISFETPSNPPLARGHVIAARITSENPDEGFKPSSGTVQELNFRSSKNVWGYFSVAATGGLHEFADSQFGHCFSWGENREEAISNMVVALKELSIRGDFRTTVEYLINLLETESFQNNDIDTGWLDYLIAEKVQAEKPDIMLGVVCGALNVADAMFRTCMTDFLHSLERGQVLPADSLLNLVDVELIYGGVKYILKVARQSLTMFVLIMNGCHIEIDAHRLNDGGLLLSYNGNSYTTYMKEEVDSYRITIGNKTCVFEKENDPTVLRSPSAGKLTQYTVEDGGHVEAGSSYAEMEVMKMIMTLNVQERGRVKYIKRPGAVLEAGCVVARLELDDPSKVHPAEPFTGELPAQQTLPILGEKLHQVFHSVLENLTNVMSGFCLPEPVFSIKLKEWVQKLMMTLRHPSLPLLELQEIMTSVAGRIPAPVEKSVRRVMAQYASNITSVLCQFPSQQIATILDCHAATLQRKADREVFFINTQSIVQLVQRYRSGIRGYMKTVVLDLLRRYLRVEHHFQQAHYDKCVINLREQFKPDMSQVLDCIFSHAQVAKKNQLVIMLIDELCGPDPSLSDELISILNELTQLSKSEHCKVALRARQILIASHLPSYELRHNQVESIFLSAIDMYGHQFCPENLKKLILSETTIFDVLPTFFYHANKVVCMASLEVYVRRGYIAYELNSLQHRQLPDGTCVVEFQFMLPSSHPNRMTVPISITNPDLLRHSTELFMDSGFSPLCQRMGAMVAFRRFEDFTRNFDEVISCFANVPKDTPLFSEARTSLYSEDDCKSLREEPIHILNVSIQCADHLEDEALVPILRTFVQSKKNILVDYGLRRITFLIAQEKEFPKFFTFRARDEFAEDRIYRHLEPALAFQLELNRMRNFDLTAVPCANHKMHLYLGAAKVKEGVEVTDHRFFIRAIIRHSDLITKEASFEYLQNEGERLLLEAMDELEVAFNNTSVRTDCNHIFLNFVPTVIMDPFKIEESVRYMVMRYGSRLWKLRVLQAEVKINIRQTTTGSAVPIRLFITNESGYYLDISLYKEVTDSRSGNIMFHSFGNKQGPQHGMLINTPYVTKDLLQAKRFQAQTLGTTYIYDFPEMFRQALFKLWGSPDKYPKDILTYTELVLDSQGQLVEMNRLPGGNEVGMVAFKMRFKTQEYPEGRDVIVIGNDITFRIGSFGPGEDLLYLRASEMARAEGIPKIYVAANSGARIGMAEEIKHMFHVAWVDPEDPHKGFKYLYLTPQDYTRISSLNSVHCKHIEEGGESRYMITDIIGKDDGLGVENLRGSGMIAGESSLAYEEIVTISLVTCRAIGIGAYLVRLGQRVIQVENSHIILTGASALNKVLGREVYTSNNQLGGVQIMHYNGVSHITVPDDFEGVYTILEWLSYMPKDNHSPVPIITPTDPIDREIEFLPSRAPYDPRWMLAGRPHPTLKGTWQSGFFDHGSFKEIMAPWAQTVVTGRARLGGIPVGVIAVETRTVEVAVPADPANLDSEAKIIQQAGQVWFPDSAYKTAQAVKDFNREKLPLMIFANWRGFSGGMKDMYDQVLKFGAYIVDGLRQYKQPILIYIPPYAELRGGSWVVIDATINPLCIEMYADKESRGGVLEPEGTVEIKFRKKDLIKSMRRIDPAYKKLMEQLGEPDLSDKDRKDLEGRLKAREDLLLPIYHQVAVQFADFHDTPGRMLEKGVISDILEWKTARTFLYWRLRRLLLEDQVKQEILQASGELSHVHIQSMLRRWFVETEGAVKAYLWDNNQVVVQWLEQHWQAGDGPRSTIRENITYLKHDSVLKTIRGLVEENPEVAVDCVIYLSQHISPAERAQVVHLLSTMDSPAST

`CC(=O)N[C@@H](C)c1ccc(C2CCN(c3ccc(NCC4CC4)cc3)CC2)cc1` [Example 24.4] was tested. Which pIC50 did it give?
The pIC50 was 5.89.

With `CC(=O)N[C@@H](C)c1ccc(C2CCN(c3nc(C(C)C)no3)CC2)cc1` [Example 25.1, (S)—N-(1-{4-[1-(3-Isopropyl-[1,2,4]oxadiazol-5-yl)-piperidin-4-yl]-phenyl}-ethyl)-acetamide] as the compound, how does the pIC50 read?
The pIC50 was 5.57.

`CCc1noc(N2CCC(c3ccc([C@H](C)NC(C)=O)cc3)CC2)n1` [Example 25.2] was tested. Which pIC50 did it give?
Its pIC50 is 4.99.

How did the pIC50 turn out when `CC(=O)N[C@@H](C)c1ccc(C2CCN(c3nc(-c4ccccc4)no3)CC2)cc1` [Example 25.3] was run?
The pIC50 was 6.02.

How did the pIC50 turn out when `CC(=O)N[C@@H](C)c1ccc(C2CCN(c3noc(-c4ccccc4)n3)CC2)cc1` [Example 26.1, (S)—N-(1-{4-[1-(5-Phenyl-[1,2,4]oxadiazol-3-yl)-piperidin-4-yl]-phenyl}-ethyl)-acetamide] was run?
Its pIC50 is 5.72.

With `CCc1nc(N2CCC(c3ccc([C@H](C)NC(C)=O)cc3)CC2)no1` [Example 26.2] as the compound, how does the pIC50 read?
The pIC50 was 5.39.

How did the pIC50 turn out when `CC(=O)N[C@@H](C)c1ccc(C2CCN(c3noc(C(C)C)n3)CC2)cc1` [Example 26.3] was run?
The pIC50 was 6.15.

With `COCc1nc(N2CCC(c3ccc([C@H](C)NC(C)=O)cc3)CC2)no1` [Example 26.4] as the compound, how does the pIC50 read?
Its pIC50 is 5.04.

With `CC(=O)N[C@@H](C)c1ccc(C2CCN(c3ccc(OCC4CC4C)cc3)CC2)cc1` (stereo partly drawn) [Example 27.1, N-((1S)-1-(4-(1-(4-((2-methylcyclopropyl)methoxy)phenyl)-piperidin-4-yl)phenyl)-ethyl)acetamide] as the compound, how does the pIC50 read?
The pIC50 was 6.82.

How did the pIC50 turn out when `CC(=O)N[C@@H](C)c1ccc(C2CCN(c3ccc(OCC4(CC#N)CC4)cc3)CC2)cc1` [Example 27.3] was run?
The pIC50 was 6.07.

With `CC(=O)N[C@@H](C)c1ccc(C2CCN(c3cccc(C(=O)O)c3)CC2)cc1` [Example 28.1, (S)-3-(4-(4-(1-Acetamidoethyl)phenyl)piperidin-1-yl)benzoic acid] as the compound, how does the pIC50 read?
Its pIC50 is 5.03.

How did the pIC50 turn out when `CC(=O)N[C@@H](C)c1ccc(C2CCN(c3cccc(C(=O)N4CCc5ccccc5C4)c3)CC2)cc1` [Example 29.1, (S)—N-(1-(4-(1-(3-(1,2,3,4-Tetrahydroisoquinoline-2-carbonyl)phenyl)piperidin-4-yl)phenyl)ethyl)acetamide] was run?
The pIC50 was 5.80.

`CC(=O)N[C@@H](C)c1ccc(C2CCN(c3cccc(C(=O)N4Cc5ccccc5C4)c3)CC2)cc1` [Example 29.2] was tested. Which pIC50 did it give?
The pIC50 was 5.77.

How did the pIC50 turn out when `CCNC(=O)c1cccc(N2CCC(c3ccc([C@H](C)NC(C)=O)cc3)CC2)c1` [Example 29.3] was run?
The pIC50 was 5.17.

With `CCOc1ccc(N2CCC(c3ccc([C@H](C)NC(=O)CC(C)=O)cc3)CC2)cc1` [Example 30.1] as the compound, how does the pIC50 read?
The pIC50 was 5.57.

`CCOc1ccc(N2CCC(c3ccc([C@H](C)NC(=O)CC(=O)OC)cc3)CC2)cc1` [Example 31.1, (S)-Methyl 3-(1-(4-(1-(4-Ethoxyphenyl)piperidin-4-yl)phenyl)ethylamino)-3-oxopropanoate] was tested. Which pIC50 did it give?
Its pIC50 is 5.80.

How did the pIC50 turn out when `CCOc1ccc(N2CCC(c3ccc([C@H](C)NC(=O)CC(=O)O)cc3)CC2)cc1` [Example 32.1, (S)-3-(1-(4-(1-(4-Ethoxyphenyl)piperidin-4-yl)phenyl)ethylamino)-3-oxopropanoic Acid] was run?
The pIC50 was 5.14.

With `CCOc1ccc(N2CCC(c3ccc([C@H](C)NC(=O)CC(N)=O)cc3)CC2)cc1` [Example 33.1, (S)—N-(1-{4-[1-(4-Ethoxyphenyl)piperidin-4-yl]phenyl}ethyl)malonamide] as the compound, how does the pIC50 read?
The pIC50 was 5.77.

How did the pIC50 turn out when `CCOc1ccc(N2CCC(c3ccc([C@H](C)NC(=O)CC(=O)NC)cc3)CC2)cc1` [Example 33.2] was run?
The pIC50 was 5.05.

With `CC(=O)N[C@@H](C)c1ccc(C2CCN(c3cnc(-c4ccccn4)s3)CC2)cc1` [Example 34.1, (S)—N-(1-(4-(1-(2-(Pyridin-2-yl)thiazol-5-yl)piperidin-4-yl)phenyl)ethyl)acetamide] as the compound, how does the pIC50 read?
The pIC50 was 6.38.

`CC(=O)N[C@@H](C)c1ccc(C2CCN(c3csc(-c4ccc(C(F)(F)F)cn4)n3)CC2)cc1` [Example 34.2] was tested. Which pIC50 did it give?
Its pIC50 is 7.40.

How did the pIC50 turn out when `CCOc1ccc(N2CCC(c3ccc([C@H](C)NC(=O)CN)cc3)CC2)cc1` [Example 35.1, (S)-2-Amino-N-(1-{4-[1-(4-ethoxyphenyl)piperidin-4-yl]phenyl}ethyl)acetamide] was run?
Its pIC50 is 5.27.

How did the pIC50 turn out when `CCOc1ccc(N2CCC(c3ccc([C@H](C)NC(=O)CN(C)C)cc3)CC2)cc1` [Example 36.1, (S)-2-(Dimethylamino)-N-(1-{4-[1-(4-ethoxyphenyl)piperidin-4-yl]phenyl}ethyl)acetamide] was run?
Its pIC50 is 5.80.

With `CCOc1ccc(N2CCC(c3ccc([C@H](C)NC(C)=O)cc3)CC2)c(C(N)=O)c1` [Example 37.1, (S)-2-(4-(4-(1-Acetamidoethyl)phenyl)piperidin-1-yl)-5-ethoxybenzamide] as the compound, how does the pIC50 read?
The pIC50 was 4.64.

How did the pIC50 turn out when `CCOc1ccc(N2CCC(c3ccc([C@H](C)NC(C)=S)cc3)CC2)cc1` [Example 38.1, (S)-N-(1-(4-(1-(4-Ethoxyphenyl)piperidin-4-yl)phenyl)ethyl)ethanethioamide] was run?
The pIC50 was 6.37.

`CCOc1ccc(N2CCC(c3ccc([C@H](C)NC(C)=S)cc3)CC2)c(F)c1` [Example 38.2] was tested. Which pIC50 did it give?
Its pIC50 is 6.54.

With `CC(=O)N(C)[C@@H](C)c1ccc(C2CCN(c3ccc(OCC4CC4)cc3)CC2)cc1` [Example 39.1, (S)—N-(1-(4-(1-(4-Cyclopropylmethoxyphenyl)piperidin-4-yl)phenyl)ethyl)-N-methylacetamide] as the compound, how does the pIC50 read?
Its pIC50 is 4.92.

With `CCN(C(C)=O)[C@@H](C)c1ccc(C2CCN(c3ccc(OCC4CC4)cc3)CC2)cc1` [Example 39.2] as the compound, how does the pIC50 read?
Its pIC50 is 5.82.

With `CCCOc1ccc(N2CCC(c3ccc([C@H](C)NC(=O)C(F)(F)F)cc3)CC2)c(OC)c1` [Example 40.1, (S)-2,2,2-Trifluoro-N-{1-[4-(1-(2-methoxy-4-propoxyphenyl)piperidin-4-yl)phenyl]-ethyl}acetamide] as the compound, how does the pIC50 read?
The pIC50 was 6.54.

How did the pIC50 turn out when `CCOc1ccc(N2CCC(c3ccc([C@H](C)NC(=O)C(F)(F)F)cc3)CC2)cc1` [Example 40.2] was run?
The pIC50 was 7.10.

Reference: patent US9006450B2 (Boehringer Ingelheim International GmbH, priority 2010, dated 2015)
